In patent publication US20090004185A1, “AMINO-SUBSTITUTED QUINAZOLINE DERIVATIVES AS INHIBITORS OF BETA-CATENIN/TCF-4 PATHWAY AND CANCER TREATMENT AGENTS” (WYETH, priority 2007, published 2009) one finds IC50 data, which are given here for 25 molecules.

Test [1] has as its system β-catenin/Tcf-4. The test can be described thus: cells. The format is cell-based. The settings on record: 24 hours of incubation with compound, ratio Firefly/Renilla luciferase. The method, boiled down:
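SW480-derived lines with integrated reporters (Tcf-4-driven firefly luciferase; SV40 firefly as specificity control; SV40 Renilla for cell number/toxicity), treated 24 hours with titrated compounds, final 0.316% DMSO. Dual-luciferase read-out; firefly/Renilla ratio as % of control, duplicate plates, IC50 (nM) from curve fit.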

For test [2], the system named is SV40-Luc. The test can be described thus: SV40-Luc control luciferase reporter assay, SV 5A8 cell line (SV40-Luc and SV40-R-Luc), control for non-specific inhibitors. The format is cell-based, human. To be noted: SV 5A8 cells derived from SW480, 24 hours of incubation with compound, ratio Firefly/Renilla luciferase. The essentials:
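Cells were plated and, 20-24 hours later, treated with titrated compound (0.316% DMSO final). After 24 hours they were lysed or given Dual-Glo reagent, and firefly then Renilla luminescence was measured. IC50s came from firefly/Renilla ratios as % of control.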
In general terms: In a reporter assay the amount or activity of a reporter protein is the signal.

Setting [3] is: Homo sapiens, SW480, 24 h, Tcf 33.13 cells derived from SW480.
The mark [4] stands for this setting: Homo sapiens, Tcf22C11, 24 h, Tcf 22C11 cells derived from SW480.
Setting [5] is: Tcf 22C11 cells derived from SW480.
[6] abbreviates: Tcf 33.13 cells derived from SW480.

What is called IC50 is the concentration at which inhibition is half-maximal. `Cc1ccc2c(NCc3ccc(NC(=O)c4ccc(Cl)cc4)cc3)nc(NCCc3ccccn3)nc2c1` [Example 197, 4-chloro-N-{4-[({7-methyl-2-[(2-pyridin-2-ylethyl)amino]quinazolin-4-yl}amino)methyl]phenyl}benzamide]: the IC50 is 382 nM in test [1] (setting [3]); 376 nM in test [1] (setting [4]); more than 2390 nM in test [2] (Homo sapiens, SV5A8, 24 h).

On to `Cc1ccc2c(NCc3ccc(NC(=O)c4ccc(F)cc4)cc3)nc(N3CCN(CC(=O)NC(C)C)CC3)nc2c1` [Example 219, 4-fluoro-N-(4-{[(2-{4-[2-(isopropylamino)-2-oxoethyl]piperazin-1-yl}-7-methylquinazolin-4-yl)amino]methyl}phenyl)benzamide], for which the IC50 in test [1] (setting [3]) is 1420 nM; in test [1] (setting [4]), 1800 nM; in test [2] (Homo sapiens, SV5A8, 24 h), more than 14600 nM.

Turning to `Cc1ccc2c(NCc3ccc(NC(=O)C4CCN(Cc5ccccc5)CC4)cc3)nc(N(C)CCc3ccccn3)nc2c1` [Example 145, 1-benzyl-N-{4-[({7-methyl-2-[methyl(2-pyridin-2-ylethyl)amino]quinazolin-4-yl}amino)methyl]phenyl}piperidine-4-carboxamide], the IC50 in test [1] (setting [3]) was 1230 nM; in test [1] (setting [4]) it was 1350 nM; in test [2] (Homo sapiens, SV5A8, 24 h), more than 16700 nM.

As for `CNc1nc(NCc2ccc(NC(=O)c3ccc(F)cc3F)cc2)c2cc(C)ccc2n1` [Example 34, 2,4-difluoro-N-[4-({[6-methyl-2-(methylamino)quinazolin-4-yl]amino}methyl)phenyl]benzamide], the IC50 in test [1] (setting [3]) was 3230 nM; in test [1] (setting [4]), 4190 nM; in test [2] (Homo sapiens, SV5A8, 24 h) it was more than 11500 nM.

As to `O=C(Nc1ccc(CNc2nc(N3CCOCC3)nc3ccccc23)cc1)c1ccc(F)cc1` [Example 117, 4-fluoro-N-(4-{[(2-morpholin-4-ylquinazolin-4-yl)amino]methyl}phenyl)benzamide], the half-maximal inhibitory concentration (IC50) in test [1] (setting [3]) is 4480 nM; in test [1] (setting [4]), 7170 nM; in test [2] (Homo sapiens, SV5A8, 24 h), more than 21900 nM.

Take `CNc1nc(NCc2ccc(NC(=O)c3ccc(Cl)nc3)cc2)c2cc(C)cc(C)c2n1` [Example 23, 6-chloro-N-[4-({[6,8-dimethyl-2-(methylamino)quinazolin-4-yl]amino}methyl)phenyl]nicotinamide]: the half-inhibitory concentration (IC50) is 1720 nM in test [1] (setting [3]); 1880 nM in test [1] (setting [4]); more than 5590 nM in test [2] (Homo sapiens, SV5A8, 24 h).

With `Cc1ccc2nc(N3CCC(N4CCCC4)CC3)nc(NCc3ccc(NC(=O)C4CCN(Cc5ccccc5)CC4)cc3)c2c1` [Example 83, 1-benzyl-N-[4-({[6-methyl-2-(4-pyrrolidin-1-ylpiperidin-1-yl)quinazolin-4-yl]amino}methyl)phenyl]piperidine-4-carboxamide], the IC50 in test [1] (setting [3]) was 425 nM; in test [1] (setting [4]), 511 nM; in test [2] (Homo sapiens, SV5A8, 24 h), more than 4050 nM.

`Cc1ccc2nc(N3CCC3)nc(NCc3ccc(NC(=O)C4CCN(Cc5ccccc5)CC4)cc3)c2c1` [Example 84, N-(4-{[(2-azetidin-1-yl-6-methylquinazolin-4-yl)amino]methyl}phenyl)-1-benzylpiperidine-4-carboxamide]: the IC50 was 423 nM in test [1] (setting [3]); 434 nM in test [1] (setting [4]); more than 9310 nM in test [2] (Homo sapiens, SV5A8, 24 h).

Consider `O=C(Nc1ccc(CNc2nc(N3CCN(c4ncccn4)CC3)nc3ccc(C(F)(F)F)cc23)cc1)c1ccc(Cl)cc1` [Example 164, 4-chloro-N-[4-({[2-(4-pyrimidin-2-ylpiperazin-1-yl)-6-(trifluoromethyl)quinazolin-4-yl]amino}methyl)phenyl]benzamide], for which the IC50 in test [1] (setting [3]) is 4310 nM; in test [1] (setting [4]), 5190 nM; in test [2] (Homo sapiens, SV5A8, 24 h), more than 8080 nM.

Regarding `CN1CCN(c2nc(NCc3ccc(NC(=O)c4ccc(F)cc4)cc3)c3ccccc3n2)CC1` [Example 116, 4-fluoro-N-[4-({[2-(4-methylpiperazin-1-yl)quinazolin-4-yl]amino}methyl)phenyl]benzamide], the IC50 in test [1] (setting [3]) is 3040 nM; in test [1] (setting [4]), 3440 nM; in test [2] (Homo sapiens, SV5A8, 24 h) it was more than 21300 nM.

Turning to `Cc1ccc2nc(NCc3ccco3)nc(NCc3ccc(NC(=O)C4CCN(Cc5ccccc5)CC4)cc3)c2c1` [Example 81, 1-benzyl-N-{4-[({2-[(2-furylmethyl)amino]-6-methylquinazolin-4-yl}amino)methyl]phenyl}piperidine-4-carboxamide], the IC50 was more than 8920 nM in test [1] (setting [3]); more than 8920 nM in test [1] (setting [4]); more than 17800 nM in test [2] (Homo sapiens, SV5A8, 24 h).

Turning to `CNc1nc(N[C@@H](C)c2ccc(NC(=O)c3ccc(F)cc3)cc2)c2cccc(C)c2n1` [Example 275, (S)-4-fluoro-N-(4-(1-(8-methyl-2-(methylamino)quinazolin-4-ylamino)ethyl)phenyl)benzamide], the IC50 was 549 nM in test [1] (setting [3]); 522 nM in test [1] (setting [4]); more than 1240 nM in test [2] (Homo sapiens, SV5A8, 24 h).

Consider `CN(C)c1nc(NCc2ccc(NC(=O)c3ccc(F)cc3)cc2)c2cc(F)ccc2n1` [Example 60, N-[4-({[2-(dimethylamino)-6-fluoroquinazolin-4-yl]amino}methyl)phenyl]-4-fluorobenzamide], for which the IC50 in test [1] (setting [3]) was 1950 nM; in test [1] (setting [4]), 5390 nM; in test [2] (Homo sapiens, SV5A8, 24 h), more than 11500 nM.

As to `CN(C)c1cccc(-c2ccc3nc(N(C)C)nc(NCc4ccc(C(=O)Nc5ccc(F)cc5)cc4)c3c2)c1` [Example 170], the IC50 was 692 nM in test [1] (setting [5]), 806 nM in test [1] (setting [6]) and more than 2340 nM in test [2].

Take `Cc1ccc2c(NCc3ccc(NC(=O)Nc4ccc(Br)cc4)cc3)nc(N(C)C)nc2c1` [Example 179, N-(4-bromophenyl)-N′-[4-({[2-(dimethylamino)-7-methylquinazolin-4-yl]amino}methyl)phenyl]urea]: the IC50 in test [1] (setting [3]) is 924 nM; in test [1] (setting [4]), 538 nM; in test [2] (Homo sapiens, SV5A8, 24 h), more than 4950 nM.

As for `CCN(CC)c1nc(NCc2ccc(NC(=O)c3ccc(F)cc3)cc2)c2ccc(C)cc2n1` [Example 211, N-[4-({[2-(diethylamino)-7-methylquinazolin-4-yl]amino}methyl)phenyl]-4-fluorobenzamide], the IC50 in test [1] (setting [3]) is 396 nM; in test [1] (setting [4]) it was 558 nM; in test [2] (Homo sapiens, SV5A8, 24 h), more than 2730 nM.

For the molecule `C/C=C/c1ccc2nc(N(C)C)nc(NCc3ccc(C(=O)Nc4ccc(F)cc4)cc3)c2c1` [Example 174, E-4-((2-dimethylamino)-6-(prop-1-enyl)quinazolin-4-ylamino)methyl-N-(4-fluorophenyl)benzamide], the IC50 in test [1] (setting [5]) is 436 nM; in test [1] (setting [6]) it was 359 nM; in test [2], more than 5080 nM.

On to `CN(C)CC#Cc1ccc2nc(N(C)C)nc(NCc3ccc(NC(=O)c4ccc(F)cc4)cc3)c2c1` [Example 69, N-{4-[({2-(dimethylamino)-6-[3-(dimethylamino)prop-1-yn-1-yl]quinazolin-4-yl}amino)methyl]phenyl}-4-fluorobenzamide], for which the IC50 in test [1] (setting [3]) was 1940 nM; in test [1] (setting [4]), 2010 nM; in test [2] (Homo sapiens, SV5A8, 24 h), more than 20100 nM.

For `CNc1nc(NCc2ccc(NC(=O)c3cc(F)c(Cl)nc3Cl)cc2)c2ccccc2n1` [Example 8, 2,6-dichloro-5-fluoro-N-[4-({[2-(methylamino)quinazolin-4-yl]amino}methyl)phenyl]nicotinamide], the IC50 in test [1] (setting [3]) was 1530 nM; in test [1] (setting [4]), 1770 nM; in test [2] (Homo sapiens, SV5A8, 24 h), more than 5300 nM.

In the case of `CN(C)c1nc(NCc2ccc(NC(=O)c3ccc(Cl)nc3)cc2)c2ccc(I)cc2n1` [Example 110, 6-chloro-N-[4-({[2-(dimethylamino)-7-iodoquinazolin-4-yl]amino}methyl)phenyl]nicotinamide], the IC50 was 1190 nM in test [1] (setting [3]); 1760 nM in test [1] (setting [4]); more than 16800 nM in test [2] (Homo sapiens, SV5A8, 24 h).

Regarding `CNc1nc(NCc2ccc(NC(=O)c3ccc(Cl)cc3)cc2)c2cc(C(F)(F)F)ccc2n1` [Example 167, 4-chloro-N-[4-({[2-(methylamino)-6-(trifluoromethyl)quinazolin-4-yl]amino}methyl)phenyl]benzamide], the IC50 in test [1] (setting [3]) is 751 nM; in test [1] (setting [4]), 919 nM; in test [2] (Homo sapiens, SV5A8, 24 h), more than 5140 nM.

As for `CNc1nc(NCc2ccc(NC(=O)c3cccnc3Cl)cc2)c2ccccc2n1` [Example 7, 2-chloro-N-[4-({[2-(methylamino)quinazolin-4-yl]amino}methyl)phenyl]nicotinamide], the IC50 in test [1] (setting [3]) was more than 2980 nM; in test [1] (setting [4]) it was more than 2980 nM; in test [2] (Homo sapiens, SV5A8, 24 h), more than 23900 nM.

For `COCCN(C)c1nc(NCc2ccc(NC(=O)c3ccc(F)cc3)cc2)c2ccc(C)cc2n1` [Example 220, 4-fluoro-N-{4-[({2-[(2-methoxyethyl)(methyl)amino]-7-methylquinazolin-4-yl}amino)methyl]phenyl}benzamide], the IC50 in test [1] (setting [3]) was 682 nM; in test [1] (setting [4]) it was 1140 nM; in test [2] (Homo sapiens, SV5A8, 24 h), more than 8510 nM.

Turning to `CNc1nc(NCc2ccc(NC(=O)c3ccc(C(F)(F)F)cc3)cc2)c2cc(C)ccc2n1` [Example 27, N-[4-({[6-methyl-2-(methylamino)quinazolin-4-yl]amino}methyl)phenyl]-4-(trifluoromethyl)benzamide], the IC50 in test [1] (setting [3]) is 402 nM; in test [1] (setting [4]), 526 nM; in test [2] (Homo sapiens, SV5A8, 24 h) it was more than 5370 nM.

As for `Cc1ccc2c(NCc3ccc(NC(=O)C4CCN(Cc5ccccc5)CC4)cc3)nc(N(C)CCO)nc2c1` [Example 139, 1-benzyl-N-{4-[({2-[(2-hydroxyethyl)(methyl)amino]-7-methylquinazolin-4-yl}amino)methyl]phenyl}piperidine-4-carboxamide], the IC50 in test [1] (setting [3]) is 1420 nM; in test [1] (setting [4]), 1460 nM; in test [2] (Homo sapiens, SV5A8, 24 h), more than 18600 nM.
